Assay results published in patent US20100087411A1, “SUBSTITUTED SAPOGENINS AND THEIR USE” (Phytopharm PLC, priority 2000, published 2010).

Test system: m2 receptor
Test: Expression of m2 receptors on CHO cells transfected with DNA for the m2 receptor (tritiated QNB binding)
Format: cell-based
Parameters: key: Active: “active” means increase over the control; Inactive: “inactive” means same effect as control
Conditions: DMSO control, range of final concentrations
Text: Substituted sapogenins of the present invention have also been tested for activity in a number of in-vitro assays. The assays/experiments that were considered of key importance in determining possible activity in the elevation of membrane bound receptor numbers were as follows: • Chinese hamster ovary (CHO) cells transfected with the a DNA fragment coding for a muscarinic receptor. The cell line used for the majority of the experiments was a cell line expressing the m2 receptor. The methods and the results of these experiments are now described in turn.
The effects of various compounds on the expression of m2 receptors on CHO cells transfected with DNA for the m2 receptor were investigated. Receptor numbers were assayed using tritiated QNB binding and subtracting non-specific binding. Compounds were dissolved in DMSO and DMSO was used as a control. Compounds were tested at a range of final concentrations. Compounds were also tested in the presence and absence of tamoxifen to try to distinguish an oestrogen receptor mediated mechanism The results are summarised in the Table I below.

Row | SMILES | Effect on receptor expression
1 | CC1CCC2(OC1)OC1CC3C4CCC5CC(N=[N+]=[N-])CCC5(C)C4CCC3(C)C1C2C (stereo not drawn) [3α-azido-5β,20α,22α,25R-spirostane] | Active
2 | C[C@H]1[C@H]2[C@H](C[C@H]3[C@@H]4CC[C@@H]5C[C@@H](O)CC[C@]5(C)[C@H]4CC[C@]23C)O[C@]12CCC(C)(C)CO2 [25-methyl-5β,20α,22α-spirostane-3β-ol] | Active
3 | C[C@@H]1CC[C@@]2(OC1)O[C@H]1C[C@H]3[C@@H]4CC[C@@H]5C[C@H](NS(C)(=O)=O)CC[C@]5(C)[C@H]4CC[C@]3(C)[C@H]1[C@@H]2C [3α-methylsulphonylamino-5β,20α,22α,25R-spirostane] | Active
4 | C[C@@H]1CC[C@@]2(OC1)O[C@H]1C[C@H]3[C@@H]4CC[C@@H]5CC(F)(F)CC[C@]5(C)[C@H]4CC[C@]3(C)[C@H]1[C@@H]2C [3,3-difluoro-5β,20α,22α,25R-spirostane] | Active
5 | C[C@@H]1CC[C@@]2(OC1)O[C@H]1C[C@H]3[C@@H]4CC[C@@H]5C[C@@H](F)CC[C@]5(C)[C@H]4CC[C@]3(C)[C@H]1[C@@H]2C [3β-fluoro-5β,20α,22α,25R-spirostane] | Active
6 | C[C@@H]1CC[C@@]2(OC1)O[C@H]1C[C@H]3[C@@H]4CC[C@@H]5C[C@H](N)CC[C@]5(C)[C@H]4CC[C@]3(C)[C@H]1[C@@H]2C [3α-amino-5β,20α,22α,25R-spirostane] | Active
7 | C[C@@H]1CC[C@@]2(OC1)O[C@H]1C[C@H]3[C@@H]4CC[C@H]5C[C@H](F)CC[C@]5(C)[C@H]4CC[C@]3(C)[C@H]1[C@@H]2C [3α-fluoro-5α,20α,22α,25R-spirostane] | Inactive
